Test results reported in patent US20250221963A1 (GH RESEARCH IRELAND LIMITED, priority 2022, published 2025).
Where “and” joins values, the source holds several entries; their conditions need not be identical. Equal values may be shown once.

Key:
[1] = Pharmacokinetics of 5-MeO-DMT and bufotenine after inhalation; format: in vivo, human
Description: Blood samples were obtained at 1; 2; 4; 7; 10; 15; 20; 30; 45 min and 1; 1.5; 2; 3; 4 hours after administration.
PK parameters were generated by algebraic analysis of the concentration versus time plots for each individual. The analysis was carried out using the software Phoenix WinNonlin 6.3.

[2] = test system: patients with postpartum depression (PPD); experiment: Clinical trial of inhaled 5-MeO-DMT in postpartum depression; conditions: PPD patient
Description: The single-arm, open-label clinical trial will involve 15 adult female patients with clinically diagnosed postpartum depression (PPD).
The second dose (12 mg) will only be administered if: • a. […] The 6 mg dose was safe and well-tolerated according to the investigator, • c. Any psychoactive effects (PsE) of the prior dose have subsided, and • d. Pre-dose vital parameters and forced expiratory volume in one second (FEV1) are in normal range, or if outside of the normal range, are not clinically significant according to the investigator. • 3. Similarly, a third dose (18 mg) will only be administered if: • a. […] The 12 mg dose was safe and well-tolerated according to the investigator, and • c. Any PsE of the prior dose have subsided, and • d. Pre-dose vital parameters and forced expiratory volume in one second (FEV1) are in normal range, or if outside of the normal range, are not clinically significant according to the investigator.
The patients will be assessed for a peak psychedelic experience (based on a patient-scored visual analogue scale, the PE scale), sedation, and other endpoints after dosing. Follow-up visits are planned for Day 1, and Day 7 after the dosing day.
The following criteria must be met by all patients considered for clinical trial participation: • 1. Is female and in the age range between 18 and 45 years (inclusive) at screening. • 2. Has a body mass index (BMI) in the range of 18.5 and 35 kg/m^2 (inclusive) at screening. • 3. Meets the trial criteria for PPD as assessed by a trial psychiatrist or registered psychologist: • a. Diagnosis of Major Depressive Disorder without psychotic features, confirmed by the Mini-International Neuropsychiatric Interview (MINI), with peri-partum onset that began no earlier than gestation and no later than the first 4 weeks postpartum. • b. Has a Montgomery-Åsberg Depression Rating Scale (MADRS) total score of equal to or greater than 28 at screening and pre-dose on Day 0. • 6. […] Patients must have a negative pregnancy test at screening and on the pre-test day (Day −1). • 5. Is willing to delay start of other antidepressant or anxiety medication until after the end of the trial at Day 7 and agrees to keep any psychotherapy unchanged during the trial.
A potential patient who meets any of the following key exclusion criteria will be excluded from participation in this trial: • 1. Has, based on history, psychiatric assessment, and evaluation of the MINI, a current or prior diagnosis of bipolar disorder, a manic or hypomanic episode, a psychotic disorder, Major Depressive Disorder (MDD) or other mood disorder with psychotic features, obsessive compulsive disorder, post-traumatic stress disorder (PTSD), autism spectrum disorder, borderline personality disorder, schizophrenia, delusional disorder, paranoid personality disorder, schizoaffective disorder, clinically significant intellectual disability, or any other psychiatric comorbidity that renders the patient unsuitable for the trial according to the investigator's judgment. • 2. Has one or more first or second degree relatives with a current or previously diagnosed bipolar disorder, psychotic disorder or other mood disorder (including MDD) with psychotic features. • 3. Is in the judgement of a trial psychiatrist or registered psychologist, at significant risk for suicide based on history, psychiatric assessment, and evaluation of suicidal ideation and suicidal behaviour based on the Columbia-Suicide Severity Rating Scale (C-SSRS). • 4. Has taken anti-depressive medication within 14 days or 5 half-lives (whichever is longer) prior to dosing (exception: within the last 5 weeks in the case of fluoxetine). • 5.

## COc1ccc2[nH]cc(CCN(C)C)c2c1 [5-MeO-DMT]
[1]; after 3 hours, 6, 12, 18 mg
  Detectability in the plasma: no longer detectable
[1]; repeated within 1 to 4 hours
  Accumulation upon repeated administration: No accumulation is observed
[2]
  BIMF Adjustment Δ (Day 7): 1
  BIMF Infant Care Δ (Day 7): 0
  BIMF Management Δ (Day 7): 5
  BIMF Mother-Child Interaction Δ (Day 7): 2
  BIMF Psychological Well-being Δ (Day 7): 9
  BIMF Self-Care Δ (Day 7): 4
  BIMF Social Support Δ (Day 7): 1
  BIMF TOTAL Δ (Day 7): 13
  ECG (3 hours), safety laboratory analyses (7 days), CADSS (3 hours, 1 day, 7 days): unremarkable
  MADRS response and MADRS remission criteria: fulfilled standard criteria for MADRS response
  Reported adverse events (cramping left abdominal pain and headache, Day 0): mild, short-lasting and resolved spontaneously
  Time to clinical remission after administration according to the IDR: ≤ 2 h
  Tolerability of the inhalation procedure: well tolerated with no inhalation-related adverse events
[2]; 2 hr
  Total MADRS improvement: 24
[2]; 2 hr, baseline 29
  Total MADRS score: 5
[2]; Day 1
  BPRS Tension improvement: 5
  Total MADRS improvement: 29
[2]; Day 1, baseline 29
  Total MADRS score: 0
[2]; Day 7
  BIMF Adjustment % Improvement: 20.00%
  BIMF Infant Care % Improvement: 0.00%
  BIMF Management % Improvement: 18% and 17.86%
  BIMF Mother-Child Interaction % Improvement: 13.33%
  BIMF Psychological Well-being % Improvement: 20.45%
  BIMF Self-Care % Improvement: 44% and 44.44%
  BIMF Social Support % Improvement: 5.88%
  BIMF total score improvement: 14%
  Total MADRS improvement: 28
[2]; Day 7, Day 0 score 5, maximum 12
  BIMF functional domain Adjustment score: 6
[2]; Day 7, Day 0 score 6
  BIMF item 6 (people in my life that I can trust to care for my baby) score: 6
[2]; Day 7, Day 0 score 9, maximum 18
  BIMF functional domain Self-Care score: 13
[2]; Day 7, Day 0 score 12, maximum 12
  BIMF functional domain Infant Care score: 12
[2]; Day 7, Day 0 score 15, maximum 18
  BIMF functional domain Mother-Child Interaction score: 17
[2]; Day 7, Day 0 score 17, maximum 18
  BIMF functional domain Social Support score: 18
[2]; Day 7, Day 0 score 28, maximum 36
  BIMF functional domain Management score: 33
[2]; Day 7, Day 0 score 44, maximum 60
  BIMF functional domain Psychological Well-being score: 53
[2]; Day 7, baseline 29
  Total MADRS score: 1
[2]; Discharge
  BPRS Tension improvement: 5
[2]; shortly after administration
  Changes in vital parameters: temporary, clinically non-relevant increase in heart rate and blood pressure
